Target: T1, Aromatase (Homo sapiens, UniProt P11511)
T1 sequence (P11511 whole entry): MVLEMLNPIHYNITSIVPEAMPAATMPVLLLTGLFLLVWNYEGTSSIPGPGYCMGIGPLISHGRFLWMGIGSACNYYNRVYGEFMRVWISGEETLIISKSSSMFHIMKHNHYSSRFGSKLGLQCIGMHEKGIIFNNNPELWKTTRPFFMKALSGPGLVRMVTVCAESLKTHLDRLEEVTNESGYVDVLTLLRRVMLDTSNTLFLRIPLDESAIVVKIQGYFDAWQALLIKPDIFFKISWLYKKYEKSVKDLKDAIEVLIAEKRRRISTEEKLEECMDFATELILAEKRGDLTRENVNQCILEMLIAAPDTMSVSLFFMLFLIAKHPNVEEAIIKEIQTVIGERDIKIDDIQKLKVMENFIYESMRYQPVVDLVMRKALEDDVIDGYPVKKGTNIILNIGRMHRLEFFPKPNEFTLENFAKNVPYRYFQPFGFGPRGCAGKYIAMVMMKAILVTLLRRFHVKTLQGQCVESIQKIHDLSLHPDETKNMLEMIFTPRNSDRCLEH

IC50 [µM] | SMILES
0.8 | O=C1/C(=C/c2ccncc2)C(c2ccccc2)Oc2ccccc21 (centres undefined)
0.62 | COc1ccc2c(c1)OC(c1ccccc1)/C(=C\c1ccncc1)C2=O (centres undefined)
3.3 | O=C1/C(=C\c2ccncc2)C(c2ccccc2)Oc2ccccc21 (mixture of isomers)
1.6 | COc1ccc2c(c1)OC(c1ccccc1)/C(=C/c1ccncc1)C2=O (mixture of isomers)

Reference: ChEMBL document CHEMBL1135267 (Bioorg Med Chem Lett, 2002)
